From patent US20250289786A1, “CHLORINATED MONOCARBONYL CURCUMIN COMPOUNDS, PREPARATION METHOD, AND APPLICATION” (Southwest Medical University, priority 2024, published 2025)

What was measured:
[1] = system: CUMS depression model mice; experiment: Open field test in CUMS depression model mice; format: in vivo, C57BL/6J mice; settings: 28 days, model 327.22±161.39 cm
Excerpt: After one week of adaptive feeding, the newly purchased mice were divided into a blank group and CUMS model group. The mice in the blank group were not subjected to behavioral intervention and were fed normally. Mice in the model group were given 1-2 unpredictable behavioral stimuli every day. […] When the same stimulation is continuous, the stimulation method is changed to ensure that the same stimulation is not continuous, and the model construction period is 42 days.

BV2 cells [2] = experiment: NO release in LPS-induced BV2 cell stress; format: cell-based; settings: 1 μg/mL LPS; for NO release versus model group: 24 h, in words
Excerpt: (§1) When the body is in a long-term stress and stress state, a large number of oxidizing substances and inflammatory factors accumulate in the body, causing depression and inducing depression-like symptoms. LPS is a pro-inflammatory substance, which can induce the increase of inflammatory factors, the accumulation of reactive oxygen species ROS and the release of NO in BV2 cells. The anti-inflammatory and antioxidant effects of drugs can be evaluated by establishing an LPS stress model.
NO detection: When BV2 cells grew to the logarithmic growth phase, they were inoculated in a 6-well plate at 1×10^6 cells/well and cultured for 24 h. Then the original medium was replaced with CAK06 fresh DMEM high glucose medium containing high (10 μM), medium (5 μM), and low (1 μM) concentrations, and three duplicate wells were set up in each group. After the cells were treated with compound CAK06 for 12 h, the supernatant of the culture medium was centrifuged and stained according to the instructions of the NO detection kit, and the absorbance was detected at a wavelength of 540 nm.

[3] = Solubility detection of CAK01-CAK07; format: physicochemical
Excerpt: The chlorinated monocarbonyl curcumin compounds CAK01-CAK07 prepared under the conditions of Example 1 were taken for nuclear magnetic resonance, mass spectrometry, solubility, and melting point detection.

[4] = ABTS free radical capture ability; format: biochemical; settings: 20 min reaction in the dark
Protocol: 66.2 mg of K2S2O8 was weighed and placed in a 100 mL volumetric flask, pure water was added to the scale line to prepare a 2.45 mmol/L K2S2O8 solution. 192 mg of ABTS was accurately weighed and placed in a 25 mL volumetric flask, and the newly prepared K2S2O8 solution was added for dissolving and constant volume dilution, after standing in the dark for 20 h, the ABTS mother liquor was obtained. Before use, to make the measured value more accurate, the ABTS mother liquor needs to be diluted with a PBS solution of pH7.4 until the absorbance range of the ABTS working solution at 734 nm is 0.70±0.02.
Drug concentration screening: To avoid the complete removal of free radicals by excessive drug concentration and the inability to compare the ability to capture ABTS free radicals, a preliminary screening of drug concentration is required before the formal test. A gradient concentration of compound solution was prepared, and a gradient concentration of Vit C solution was prepared as a positive control. A total of 450 μL of ABTS working solution was accurately absorbed into a 1.5 mL EP tube, and 150 μL of the gradient solution of each group of drugs was added, after 20 min of reaction in the dark, 150 μL of the reaction solution was taken and placed in a 96-well plate, the absorbance was measured by a microplate reader. Three duplicate wells were set for each concentration, and the drug concentration with absorbance between 0.2-0.7 was selected for subsequent determination.
Determination operation: After the drug concentration screening was completed, 7 concentration gradient groups were set within this concentration range. A total of 450 μL of ABTS working solution was accurately absorbed into a 1.5 mL EP tube, and 150 μL of the gradient solution of each group of drugs was added. After 20 min of reaction in the dark, 150 μL of the reaction solution was taken and placed in a 96-well plate, the absorbance was measured by a microplate reader. Three duplicate wells were set for each concentration, the positive control group was a gradient solution of Vit C, and the blank control group was an equal volume of anhydrous ethanol.

BV2 cells [5] = experiment: ROS detection (DCFH-DA) in LPS-induced BV2 cells; format: cell-based; settings: 10, 5 and 1 μM with LPS, in words
Excerpt: as §1
ROS detection: The fluorescent dye probe DCFH-DA can freely pass through the BV2 cell membrane, and the dye entering the cell is enzymatically hydrolyzed to DCFH, at this time, it can no longer pass through the cell membrane. The intracellular ROS can oxidize DCFH to DCF with fluorescence, which can reflect the ROS content by detecting the fluorescence intensity of DCF. The specific operation is as follows: when BV2 cells grew to the logarithmic growth phase, they were inoculated in a 6-well plate at 1×10^6 cells/well and cultured for 24 h. […] After the cells were co-cultured with compound CAK06 for 12 h, the cells were stained according to the instructions of the ROS detection kit, and photographed and analyzed by an inverted fluorescence microscope.

## COc1cc(/C=C2\CNC/C(=C\c3cc(Cl)c(O)c(OC)c3)C2=O)cc(Cl)c1O [CAK06, 3,5-bis ((E)-3-chloro-4-hydroxy-5-methoxybenzylidene) piperidin-4-one]
[1]; 10 mg/kg oral once a day
  overall activity distance in the open field test: 868.90±280.97 cm
[1]; 20 mg/kg oral once a day
  overall activity distance in the open field test: 1336.66±264.87 cm
BV2 cells [2]; 1 μM (low), 12 h, 540 nm, model 0.153, blank 0.080
  absorbance (NO release): 0.145
BV2 cells [2]; 1 μM (low)
  NO release versus model group: no significant difference
BV2 cells [2]; 5 μM (medium)
  NO release versus model group: significantly improved
BV2 cells [2]; 10 μM (high)
  NO release versus model group: significantly improved
[3]
  solubility: 171.77 mg/100 g
[4]
  IC50 values of ABTS captured: 44.95 mg/L
BV2 cells [5]
  ROS fluorescence intensity: decreased in a concentration-dependent manner
